Laboratory results as given in patent US9023882B2, “5-membered nitrogen containing heterocyclic derivatives and pharmaceutical compositions comprising the same” (Kissei Pharmaceutical Co., Ltd., priority 2007, dated 2015).

Biological target: Xanthine oxidase (from bovine milk, Sigma) (Bos taurus (Bovine), UniProt P80457)
Test: Xanthine oxidase inhibitory activity
Type: biochemical
Settings: absorbance at 290 nm
Procedure: (1) Preparation of Test Compounds
Test compounds were dissolved in DMSO (Wako) at 40 mM concentration and then diluted to intended concentrations with phosphate-buffered saline (PBS).
(2) Method for Measurement
Xanthine oxidase (from bovine milk, Sigma) was prepared with phosphate-buffered saline (PBS) at 0.02 units/mL, and then the solution was added to 96 well plates at 50 μL/well. In addition, test compounds diluted with PBS were added at 50 μL/well. Xanthine (Wako) at 200 μM prepared with PBS was added at 100 μL/well, and the reaction was conducted for 10 minutes at room temperature. Absorbance at 290 nm was measured using a microplate reader SpectraMax Plus 384 (Molecular device). The absorbance under a condition without xanthine is 0%, and control without test compounds is 100%. Fifty % inhibitory concentration of a test compound (IC50) was calculated (Tables 91 to 92). Ex. No in the table indicates Example number.

[1] = 0.02 units/mL, xanthine 200 μM, 10 minutes at room temperature

Sequence of Xanthine oxidase (from bovine milk, Sigma) (P80457 whole entry): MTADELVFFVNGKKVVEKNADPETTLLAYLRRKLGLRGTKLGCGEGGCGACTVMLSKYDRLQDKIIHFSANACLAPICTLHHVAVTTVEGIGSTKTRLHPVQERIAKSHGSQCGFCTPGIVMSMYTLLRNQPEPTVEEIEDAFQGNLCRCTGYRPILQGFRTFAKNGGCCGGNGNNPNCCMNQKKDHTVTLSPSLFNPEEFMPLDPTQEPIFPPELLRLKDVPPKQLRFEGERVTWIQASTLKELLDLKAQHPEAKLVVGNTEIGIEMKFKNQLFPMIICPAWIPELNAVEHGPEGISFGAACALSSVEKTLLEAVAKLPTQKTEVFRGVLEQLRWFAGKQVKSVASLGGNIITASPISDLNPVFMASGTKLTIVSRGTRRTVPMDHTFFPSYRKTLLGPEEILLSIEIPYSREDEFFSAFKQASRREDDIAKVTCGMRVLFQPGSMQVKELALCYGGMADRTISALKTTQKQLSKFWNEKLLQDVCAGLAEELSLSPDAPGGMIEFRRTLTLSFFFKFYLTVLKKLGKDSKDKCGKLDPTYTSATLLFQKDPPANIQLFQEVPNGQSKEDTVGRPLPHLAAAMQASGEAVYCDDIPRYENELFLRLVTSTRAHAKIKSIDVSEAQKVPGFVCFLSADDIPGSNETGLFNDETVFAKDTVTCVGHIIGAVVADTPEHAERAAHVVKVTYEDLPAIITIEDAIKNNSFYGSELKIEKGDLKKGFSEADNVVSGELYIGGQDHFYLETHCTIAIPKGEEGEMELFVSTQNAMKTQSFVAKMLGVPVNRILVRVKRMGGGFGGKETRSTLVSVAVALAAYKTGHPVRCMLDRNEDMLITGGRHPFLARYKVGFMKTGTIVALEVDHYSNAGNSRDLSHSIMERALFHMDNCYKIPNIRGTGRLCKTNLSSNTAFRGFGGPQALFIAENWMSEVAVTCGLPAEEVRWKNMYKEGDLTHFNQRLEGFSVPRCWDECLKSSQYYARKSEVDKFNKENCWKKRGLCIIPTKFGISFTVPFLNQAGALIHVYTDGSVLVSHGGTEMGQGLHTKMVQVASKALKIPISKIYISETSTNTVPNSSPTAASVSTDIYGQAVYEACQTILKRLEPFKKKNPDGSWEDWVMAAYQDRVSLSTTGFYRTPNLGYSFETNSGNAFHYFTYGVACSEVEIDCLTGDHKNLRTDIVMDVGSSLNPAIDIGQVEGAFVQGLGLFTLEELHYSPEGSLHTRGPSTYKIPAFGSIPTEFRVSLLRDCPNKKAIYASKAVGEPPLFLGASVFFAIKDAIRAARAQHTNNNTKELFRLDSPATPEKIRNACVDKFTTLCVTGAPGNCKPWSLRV

Row | IC50 (100 μM xanthine final) [nM] | IC50 [1] [nM] | SMILES
1 | 5.7 | – | N#Cc1cn(-c2ccc(C(=O)O)c(O)c2)cc1-c1cccc(O)c1 [Example 338]
2 | – | 6 | N#Cc1cn(-c2ccc(C(=O)O)cc2)cc1-c1ccccc1OCCCO [Example 149]
3 | – | 33.2 | N#Cc1cn(-c2ccc(C(=O)O)cc2)cc1-c1ccccc1Oc1ccccc1 [Example 164]
4 | 14.7 | – | O=C(O)c1ccc(-n2ccc([N+](=O)[O-])c2)cc1O [Example 351]
5 | – | 11.6 | N#Cc1cn(-c2ccc(C(=O)O)c(O)c2)cc1-c1ccc(F)cc1F [Example 267]
6 | – | 4 | N#Cc1cn(-c2ccc(C(=O)O)cc2)cc1-c1ccccc1O [Example 146]
7 | – | 70 | Cc1cccc(COc2ccccc2-c2cn(-c3ccc(C(=O)O)cc3)cc2C#N)c1 [Example 168]
8 | – | 4 | COCCOc1cn(-c2ccc(C(=O)O)cc2)cc1C#N [Example 234]
9 | – | 11.9 | N#Cc1cn(-c2ccc(C(=O)O)cc2)cc1COCc1ccccc1 [Example 248]
10 | 22.6 | – | N#Cc1cn(-c2ccc(C(=O)O)c(O)c2)cc1-c1cc2ccccc2s1 [Example 289]
11 | 5.2 | – | N#Cc1cn(-c2ccc(C(=O)O)c(O)c2)cc1-c1ccc(Cl)s1 [Example 313]
12 | – | 45.4 | CCOC(=O)c1cn(-c2ccc(C(=O)O)cc2)cc1C(F)(F)F [Example 221]
13 | – | 4.9 | COCOc1ccc(-c2cn(-c3ccc(C(=O)O)cc3)cc2C#N)cc1 [Example 145]
14 | – | 4.6 | N#Cc1cn(-c2ccc(C(=O)O)cc2)nc1NC(=O)Cc1ccccc1 [Example 263]
15 | – | 13.3 | COc1ccc(-c2cn(-c3ccc(C(=O)O)c(O)c3)cc2C#N)cc1F [Example 268]
16 | – | 19.7 | CN(C)C(=O)c1cn(-c2ccc(C(=O)O)cc2)cc1C#N [Example 226]
17 | – | 120 | N#Cc1cn(-c2ccc(O)c(C(=O)O)c2)cc1-c1ccccc1 [Example 22, 5-(3-Cyano-4-phenylpyrrole-1-yl)-2-hydroxy-benzoic acid]

Row | IC50 (100 μM xanthine final) [nM] | IC50 [1] [nM] | SMILES
18 | – | 7.1 | N#Cc1cn(-c2ccc(C(=O)O)cc2)cc1OCc1ccccc1 [Example 18, 4-(3-Cyano-4-benzyloxypyrrole-1-yl)benzoic acid]
19 | – | 3.6 | N#Cc1cn(-c2ccc(C(=O)O)cc2)cc1-c1ccco1 [Example 244]
20 | 66.7 | – | N#Cc1ccn(-c2ccc(C(=O)O)c(O)c2)n1 [Example 354]
21 | – | 7.1 | CC(=O)Nc1nn(-c2ccc(C(=O)O)cc2)cc1C#N [Example 27, 4-(3-Acetylamino-4-cyanopyrazole-1-yl)benzoic acid]
22 | – | 19.2 | N#Cc1cn(-c2ccc(C(=O)O)cc2)cc1-c1ccccc1OCCCCO [Example 199]
23 | – | 7.2 | COCCNC(=O)c1cn(-c2ccc(C(=O)O)cc2)cc1C#N [Example 229]
24 | – | 20.9 | N#Cc1cn(-c2ccc(C(=O)O)cc2)cc1-c1cccc(OCCOc2ccccc2)c1 [Example 216]
25 | – | 55.1 | N#Cc1cn(-c2ccc(C(=O)O)cc2)cc1-c1cccc(-c2ccccc2)c1 [Example 162]
26 | 25.7 | – | COCCOc1cccc(-c2cn(-c3ccc(C(=O)O)c(O)c3)cc2C#N)c1 [Example 345]
27 | 15.9 | – | COc1ccccc1/C=C/c1cn(-c2ccc(C(=O)O)c(O)c2)cc1C#N [Example 293]
28 | – | 32.2 | N#Cc1cn(-c2ccc(C(=O)O)cc2)cc1-c1cccc(Oc2ccccc2)c1 [Example 165]
29 | – | 143 | N#Cc1cn(-c2ccc(C(=O)O)cc2)cc1-c1ccccc1OCc1ccc(Cl)cc1 [Example 179]
30 | – | 10.7 | N#Cc1cn(-c2ccc(C(=O)O)cc2)cc1C(=O)c1ccccc1 [Example 224]
31 | – | 54.4 | N#Cc1cn(-c2ccc(C(=O)O)cc2)cc1-c1ccccc1OCc1ccccc1Cl [Example 177]
32 | 41.2 | – | N#Cc1cn(-c2ccc(C(=O)O)c(O)c2)cc1-c1cccc(C(F)(F)F)c1 [Example 281]
33 | – | 3.8 | N#Cc1cn(-c2ccc(C(=O)O)cc2)cc1CCc1ccccc1 [Example 207]
34 | – | 67.3 | COc1ccccc1COc1ccccc1-c1cn(-c2ccc(C(=O)O)cc2)cc1C#N [Example 183]
